The supplement of paper PMC10331698
± gives the standard deviation of the averaged measurements.

Legend:
Test in all cases: level (log10 ratio to DMSO vehicle control); higher = higher biomarker level / cell amount than vehicle control
Conditions in all cases: in DMSO
[1] = compound: OCC(F)(F)C(F)(F)C(F)(F)F [1H,1H-Heptafluorobutanol]
Experimental: (§1)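 BioMAP Diversity Plus panel of 12 human primary cell co-culture systems (3C, 4H, LPS, SAg, BT, BF4T, BE3C, CASM3C, HDF3CGF, KF3CT, MyoF, Mphg). Compounds were added 1 h before stimulation and left for 24 h (MyoF 48 h; BT 72 h for soluble read-outs or 6 d for IgG). Biomarkers were read by ELISA, cytotoxicity by SRB, PBMC viability and proliferation by Alamar Blue. Each well value was divided by the mean of 8 DMSO control wells on the same plate and log10 transformed; duplicate blinded samples were tested at 4 concentrations.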

[2] = compound: O=C(O)C(F)(F)C(F)(F)C(F)(F)C(F)(F)C(F)(F)C(F)(F)C(F)(F)C(F)(F)C(F)(F)C(F)(F)C(F)(F)C(F)(F)F [Perfluorotridecanoic acid]
Experimental: as §1

[3] = compound: O=C(O)C(F)(F)C(F)(F)C(F)(F)C(F)(F)C(F)(F)C(F)(F)C(F)(F)C(F)(F)Cl [9-Chloro-perfluorononanoic acid]
Experimental: as §1

[4] = compound: C=CC(=O)OCCC(F)(F)C(F)(F)C(F)(F)C(F)(F)F [2-(Perfluorobutyl)ethyl acrylate]
Experimental: as §1

[5] = compound: O=C(O)C(F)(F)C(F)(F)C(F)(F)C(F)(F)C(F)(F)F [Perfluorohexanoic acid]
Experimental: as §1

[6] = compound: O=C(O)C(F)(F)C(F)(F)C(F)(F)C(F)(F)C(F)(F)C(F)(F)C(F)(F)C(F)(F)C(F)(F)C(F)(F)C(F)(F)C(F)(F)C(F)(F)F [Perfluorotetradecanoic acid]
Experimental: as §1

[7] = compound: OCC(F)(F)C(F)(F)C(F)(F)C(F)(F)C(F)(F)C(F)F [1H,1H,7H-Dodecafluoro-1-heptanol]
Experimental: as §1

| Test System | level (log10) ([1]; 6700 nM) | level (log10) ([1]; 20000 nM) | level (log10) ([1]; 60000 nM) | level (log10) ([2]; 1500 nM) | level (log10) ([2]; 4400 nM) | level (log10) ([2]; 13000 nM) | level (log10) ([2]; 40000 nM) | level (log10) ([3]; 6700 nM) | level (log10) ([3]; 20000 nM) | level (log10) ([4]; 6700 nM) | level (log10) ([4]; 20000 nM) | level (log10) ([4]; 60000 nM) | level (log10) ([5]; 6700 nM) | level (log10) ([5]; 20000 nM) | level (log10) ([5]; 60000 nM) | level (log10) ([6]; 6700 nM) | level (log10) ([6]; 20000 nM) | level (log10) ([7]; 6700 nM) | level (log10) ([7]; 20000 nM) | level (log10) ([7]; 60000 nM) |
| --- | --- | --- | --- | --- | --- | --- | --- | --- | --- | --- | --- | --- | --- | --- | --- | --- | --- | --- | --- | --- |
| MyoF:alpha-SM Actin | 0.0105 ± 0.0064 | -0.0045 ± 0.0078 | -0.004 ± 0.02 | 0.038 ± 0.067 | 0.041 ± 0.11 | 0.023 ± 0.086 | 0.0055 ± 0.09 | -0.009 ± 0.028 | -0.022 ± 0.013 | -0.0075 ± 0.0078 | -0.0325 ± 0.00071 | -0.0665 ± 0.00071 | -0.021 ± 0.016 | 0.011 ± 0.0099 | 0.013 ± 0.037 | -0.008 | -0.032 ± 0.0085 | -0.012 ± 0.0014 | 0.0015 ± 0.005 | -0.0115 ± 0.011 |
| MyoF:bFGF | -0.003 ± 0.0042 | 0.0045 ± 0.0078 | 0.01 ± 0.017 | 0.005 ± 0.04 | 0.017 ± 0.028 | 0.0045 ± 0.04 | 0.015 ± 0.0085 | -0.003 ± 0.023 | 0.0085 ± 0.011 | -0.0035 ± 0.0021 | -0.003 ± 0.0042 | 0.02 ± 0.011 | 0.0005 ± 0.005 | -0.0105 ± 0.019 | 0.0005 ± 0.021 | 0.0075 ± 0.00071 | 0.0315 ± 0.018 | 0.0085 ± 0.0064 | 0.0065 ± 0.015 | 0.0065 ± 0.013 |
| lMphg:CCL2/MCP-1 | -0.01 ± 0.0042 | -0.0075 ± 0.015 | -0.0295 ± 0.012 | -0.0115 ± 0.018 | 0.001 ± 0.017 | -0.004 ± 0.023 | 0.0275 ± 0.028 | 0.008 ± 0.047 | 0.0025 ± 0.015 | -0.0335 ± 0.0078 | -0.0445 ± 0.0078 | -0.012 ± 0.04 | -0.0065 ± 0.028 | -0.021 ± 0.0099 | -0.014 ± 0.041 | -0.013 ± 0.014 | -0.004 ± 0.0099 | -0.011 ± 0.014 | -0.009 ± 0.024 | 0.0115 ± 0.035 |
| lMphg:CCL3/MIP-1alpha | 0.0015 ± 0.019 | -0.003 ± 0.037 | -0.0035 ± 0.0021 | 0.0065 ± 0.023 | -0.0135 ± 0.013 | 0.004 ± 0.021 | 0.0345 ± 0.032 | 0.0205 ± 0.029 | 0.0045 ± 0.046 | -0.0105 ± 0.0064 | -0.0115 ± 0.029 | 0.021 ± 0.013 | 0.006 | -0.009 ± 0.011 | 0.0025 ± 0.011 | -0.02 ± 0.042 | -0.004 ± 0.02 | 0.0185 ± 0.063 | 0.0115 ± 0.019 | 0.044 ± 0.0085 |
| lMphg:CD40 | 0.0045 ± 0.025 | -0.0125 ± 0.059 | -0.0105 ± 0.029 | -0.0245 ± 0.021 | -0.0355 ± 0.0064 | -0.051 ± 0.0071 | -0.2 ± 0.057 | -0.0165 ± 0.0064 | -0.0155 ± 0.005 | -0.002 | -0.0165 ± 0.0064 | -0.0255 ± 0.0064 | 0.0105 ± 0.0078 | 0.016 ± 0.02 | -0.008 ± 0.0028 | -0.0405 ± 0.036 | -0.031 ± 0.014 | -0.047 ± 0.082 | -0.0425 ± 0.047 | -0.061 ± 0.071 |
| lMphg:CD62E/E-Selectin | -0.0085 ± 0.021 | 0.001 ± 0.017 | 0 ± 0.045 | -0.038 ± 0.0028 | -0.045 ± 0.0014 | -0.0395 ± 0.029 | -0.007 ± 0.0071 | 0.01 ± 0.0099 | 0.017 ± 0.0042 | 0.01 ± 0.0071 | -0.006 ± 0.0099 | 0.001 ± 0.0042 | 0.0025 ± 0.016 | 0 ± 0.0014 | -0.014 ± 0.0042 | 0.0125 ± 0.03 | -0.006 ± 0.044 | -0.0295 ± 0.025 | -0.0265 ± 0.0035 | 0.001 ± 0.048 |
| lMphg:CD69 | -0.0555 ± 0.066 | -0.052 ± 0.098 | -0.0465 ± 0.066 | -0.0045 ± 0.019 | -0.0685 ± 0.018 | -0.066 ± 0.04 | -0.0555 ± 0.013 | -0.049 ± 0.024 | -0.053 ± 0.016 | -0.0065 ± 0.016 | -0.006 ± 0.011 | -0.024 ± 0.0057 | 0.005 ± 0.035 | -0.003 ± 0.0071 | -0.017 ± 0.0042 | -0.02 ± 0.038 | -0.007 ± 0.089 | -0.0275 ± 0.0021 | -0.0305 ± 0.0064 | -0.018 ± 0.075 |
| lMphg:CD106/VCAM-1 | -0.001 | 0.008 ± 0.0028 | 0.01 ± 0.0085 | -0.018 ± 0.0014 | -0.0305 ± 0.012 | -0.0715 ± 0.018 | -0.384 ± 0.1 | -0.011 ± 0.0099 | -0.016 ± 0.0071 | -0.009 ± 0.0099 | -0.0035 ± 0.028 | -0.0405 ± 0.037 | 0.0065 ± 0.016 | -0.0055 ± 0.011 | 0.0005 ± 0.018 | -0.0325 ± 0.028 | -0.017 ± 0.0014 | -0.0115 ± 0.042 | -0.015 ± 0.037 | -0.027 ± 0.047 |
| lMphg:CXCL8/IL-8 | 0.003 ± 0.055 | 0.0295 ± 0.036 | 0.0415 ± 0.021 | -0.0575 ± 0.0021 | -0.0665 ± 0.012 | -0.0245 ± 0.00071 | -0.0175 ± 0.021 | -0.0145 ± 0.0078 | 0.0115 ± 0.025 | 0.013 ± 0.014 | 0.0045 ± 0.0021 | 0.0055 ± 0.0078 | 0.045 ± 0.024 | 0.0515 ± 0.036 | 0.074 ± 0.023 | 0.0035 ± 0.032 | 0.0215 ± 0.049 | -0.003 ± 0.013 | 0.017 ± 0.025 | 0.042 ± 0.028 |
| lMphg:IL-1alpha | 0.0275 ± 0.04 | 0.008 ± 0.018 | 0.015 ± 0.0014 | -0.0415 ± 0.0035 | -0.0175 ± 0.0078 | -0.0105 ± 0.052 | -0.0015 ± 0.0092 | 0.014 ± 0.027 | 0.0635 ± 0.046 | -0.026 ± 0.028 | -0.033 ± 0.0028 | 0.0145 ± 0.04 | 0.0035 ± 0.04 | 0 ± 0.011 | -0.009 ± 0.033 | 0.021 ± 0.068 | 0.004 ± 0.05 | -0.0255 ± 0.056 | -0.0275 ± 0.079 | -0.0735 ± 0.18 |
| lMphg:M-CSF | -0.005 ± 0.017 | 0.0045 ± 0.016 | 0.0125 ± 0.019 | -0.005 ± 0.0057 | -0.006 ± 0.016 | 0.002 ± 0.0099 | -0.011 ± 0.0099 | -0.0055 ± 0.0021 | -0.0045 ± 0.0021 | -0.0155 ± 0.029 | -0.011 ± 0.028 | -0.001 ± 0.018 | 0.0005 ± 0.028 | -0.011 ± 0.028 | -0.023 ± 0.0014 | -0.0065 ± 0.03 | -0.0175 ± 0.015 | -0.0115 ± 0.005 | -0.0035 ± 0.0078 | 0.0085 ± 0.044 |
| lMphg:SRB | -0.0045 ± 0.0064 | -0.002 ± 0.018 | -0.005 ± 0.0014 | -0.009 ± 0.0085 | -0.0135 ± 0.0035 | 0.002 ± 0.0057 | -0.0085 ± 0.00071 | 0.0105 ± 0.0092 | 0.013 ± 0.0042 | 0.0085 ± 0.0078 | -0.0095 ± 0.0064 | -0.0155 ± 0.012 | -0.019 ± 0.0085 | -0.0175 ± 0.0064 | -0.006 ± 0.0085 | -0.0035 ± 0.0035 | -0.0105 ± 0.0078 | -0.018 ± 0.028 | 0.0015 ± 0.005 | -0.0025 ± 0.00071 |
| lMphg:SRB-Mphg | 0.005 ± 0.0028 | -0.009 ± 0.0042 | 0.006 ± 0.0099 | 0.003 ± 0.023 | 0.004 ± 0.0071 | -0.0155 ± 0.022 | 0.0125 ± 0.019 | 0.01 ± 0.0042 | 0.0055 ± 0.018 | 0.012 ± 0.011 | 0.0075 ± 0.016 | -0.006 ± 0.021 | -0.0005 ± 0.011 | 0.003 ± 0.0071 | 0.0115 ± 0.0035 | 0.0035 ± 0.011 | 0.006 ± 0.031 | -0.028 ± 0.095 | -0.046 ± 0.0085 | 0.0615 ± 0.052 |
| lMphg:sIL-10 | -0.165 ± 0.033 | 0.032 ± 0.014 | -0.0565 ± 0.097 | -0.044 ± 0.0057 | -0.039 ± 0.0042 | -0.022 ± 0.013 | -0.044 ± 0.02 | 0.0205 ± 0.0078 | -0.015 ± 0.0085 | -0.0435 ± 0.011 | -0.07 ± 0.021 | -0.0715 ± 0.054 | -0.0285 ± 0.0092 | -0.0375 ± 0.046 | -0.0945 ± 0.021 | -0.032 ± 0.0014 | -0.0315 ± 0.033 | 0.0085 ± 0.11 | -0.006 ± 0.031 | 0.0485 ± 0.0078 |
